Test results: patent US11591323B2, “Muscarinic agonists as non-steroidal and non-opioid analgesics and methods of use thereof” (Barry University, priority 2019, dated 2023)
Where “and” joins values, the source holds several entries; their conditions need not be identical. Equal values may be shown once. Read-outs that look alike come from different tables or passages of the source.

Tests used:
Parameters in all cases: host or cells: CHO cells, stably transfected
[1] = molecular target: T1, M5 muscarinic receptor (Homo sapiens, UniProt P08912); assay: accumulation of IPX, M5 CHO cells (M5Gq); assay type: cell-based
T1 sequence (P08912 1-532): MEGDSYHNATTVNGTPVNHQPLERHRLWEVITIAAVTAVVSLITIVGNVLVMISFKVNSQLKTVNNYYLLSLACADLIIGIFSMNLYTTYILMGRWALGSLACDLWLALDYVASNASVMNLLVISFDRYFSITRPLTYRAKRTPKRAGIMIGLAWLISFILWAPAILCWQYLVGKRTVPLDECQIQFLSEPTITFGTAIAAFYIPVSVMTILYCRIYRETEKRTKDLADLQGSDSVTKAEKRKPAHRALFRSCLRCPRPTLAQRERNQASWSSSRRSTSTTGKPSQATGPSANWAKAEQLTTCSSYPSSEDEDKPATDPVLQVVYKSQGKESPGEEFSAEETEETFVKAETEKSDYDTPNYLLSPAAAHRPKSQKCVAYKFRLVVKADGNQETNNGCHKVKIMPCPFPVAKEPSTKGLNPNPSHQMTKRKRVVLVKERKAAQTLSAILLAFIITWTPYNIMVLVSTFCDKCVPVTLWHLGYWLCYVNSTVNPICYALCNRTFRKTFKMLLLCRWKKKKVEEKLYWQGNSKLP

[2] = molecular target: M3 muscarinic receptor (Homo sapiens, UniProt P20309); assay: accumulation of IPX, M3 CHO cells (M3Gq); assay type: cell-based
Sequence of M3 muscarinic receptor (P20309 whole entry): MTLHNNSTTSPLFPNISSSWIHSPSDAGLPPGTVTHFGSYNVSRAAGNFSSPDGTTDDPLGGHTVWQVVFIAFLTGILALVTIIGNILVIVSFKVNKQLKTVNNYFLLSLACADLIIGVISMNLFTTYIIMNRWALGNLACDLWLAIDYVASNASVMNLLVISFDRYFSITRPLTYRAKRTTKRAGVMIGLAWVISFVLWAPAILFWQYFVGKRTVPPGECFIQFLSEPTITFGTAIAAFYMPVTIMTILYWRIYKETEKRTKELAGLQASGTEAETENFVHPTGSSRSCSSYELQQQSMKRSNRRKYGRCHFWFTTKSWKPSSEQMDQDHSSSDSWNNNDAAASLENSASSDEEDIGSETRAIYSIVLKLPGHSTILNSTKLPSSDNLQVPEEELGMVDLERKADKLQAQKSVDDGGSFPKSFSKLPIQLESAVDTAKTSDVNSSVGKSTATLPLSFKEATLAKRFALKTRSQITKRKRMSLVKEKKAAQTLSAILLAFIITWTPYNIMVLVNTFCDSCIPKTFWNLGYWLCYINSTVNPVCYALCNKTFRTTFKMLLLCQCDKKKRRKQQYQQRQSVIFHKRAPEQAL

[3] = molecular target: T2, M4 muscarinic receptor (Homo sapiens, UniProt P08173); assay: inhibition of forskolin-stimulated cAMP, M4 CHO cells (M4Gi); assay type: cell-based; conditions: for Emax: CHO
T2 sequence (P08173 1-479): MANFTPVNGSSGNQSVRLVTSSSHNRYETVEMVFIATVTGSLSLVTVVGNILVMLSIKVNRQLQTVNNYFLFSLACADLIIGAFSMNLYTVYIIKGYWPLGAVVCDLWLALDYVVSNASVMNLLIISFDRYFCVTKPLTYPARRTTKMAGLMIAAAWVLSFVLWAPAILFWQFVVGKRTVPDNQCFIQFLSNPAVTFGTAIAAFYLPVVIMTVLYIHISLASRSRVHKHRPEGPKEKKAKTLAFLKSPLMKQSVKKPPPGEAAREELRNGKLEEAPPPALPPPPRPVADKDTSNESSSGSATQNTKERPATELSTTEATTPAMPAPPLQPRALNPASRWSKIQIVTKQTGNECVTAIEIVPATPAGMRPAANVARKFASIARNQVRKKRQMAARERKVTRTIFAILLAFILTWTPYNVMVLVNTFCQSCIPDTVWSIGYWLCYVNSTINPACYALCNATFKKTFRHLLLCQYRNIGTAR

[4] = molecular target: T3, M1 muscarinic receptor (Homo sapiens, UniProt P11229); assay: [3H]NMS competition binding, M1 CHO membranes
T3 sequence (P11229 1-460): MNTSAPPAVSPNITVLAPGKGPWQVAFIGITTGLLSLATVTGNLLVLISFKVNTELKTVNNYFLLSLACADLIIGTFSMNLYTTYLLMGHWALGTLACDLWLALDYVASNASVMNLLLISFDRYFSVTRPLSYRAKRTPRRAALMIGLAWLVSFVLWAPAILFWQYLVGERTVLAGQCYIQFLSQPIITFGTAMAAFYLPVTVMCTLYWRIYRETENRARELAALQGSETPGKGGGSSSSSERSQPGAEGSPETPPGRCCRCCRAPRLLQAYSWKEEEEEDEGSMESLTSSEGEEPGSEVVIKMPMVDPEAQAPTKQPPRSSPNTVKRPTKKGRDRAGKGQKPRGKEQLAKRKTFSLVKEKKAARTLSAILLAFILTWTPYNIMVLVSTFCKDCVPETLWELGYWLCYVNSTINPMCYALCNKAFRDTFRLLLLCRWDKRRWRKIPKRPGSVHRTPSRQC

[5] = molecular target: T4, M2 muscarinic receptor (Homo sapiens, UniProt P08172); assay: [3H]NMS competition binding, M2 CHO membranes
T4 sequence (P08172 1-466): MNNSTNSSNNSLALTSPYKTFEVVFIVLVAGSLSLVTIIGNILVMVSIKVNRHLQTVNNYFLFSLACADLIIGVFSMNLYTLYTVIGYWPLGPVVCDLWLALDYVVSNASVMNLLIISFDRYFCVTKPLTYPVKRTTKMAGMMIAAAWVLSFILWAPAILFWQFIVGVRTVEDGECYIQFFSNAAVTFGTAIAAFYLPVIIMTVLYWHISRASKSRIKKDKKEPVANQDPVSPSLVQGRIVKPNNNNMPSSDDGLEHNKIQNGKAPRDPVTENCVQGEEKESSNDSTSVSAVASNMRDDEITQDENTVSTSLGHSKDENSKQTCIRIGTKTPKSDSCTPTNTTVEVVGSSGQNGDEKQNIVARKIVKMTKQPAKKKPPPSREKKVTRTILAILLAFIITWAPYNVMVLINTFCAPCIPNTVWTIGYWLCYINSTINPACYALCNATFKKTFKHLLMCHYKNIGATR

[6] = molecular target: T2, M4 muscarinic receptor; assay: [3H]NMS competition binding, M4 CHO membranes
[7] = molecular target: T1, M5 muscarinic receptor; assay: [3H]NMS competition binding, M5 CHO membranes
[8] = M5 (↑IPX), preferential response, Table 7
[9] = M5 (↑IPX), preferential response, relative to carbachol, Tables 2, 3, 7
[10] = M4 (↓cAMP), preferential response, Table 7, operational efficacy
[11] = M4 (↓cAMP), preferential response, relative to carbachol, Tables 2, 3, 7
[12] = M4 (↓cAMP), preferential response, to carbachol, Tables 2, 3, 7

For C[N+]1(Cc2ccc(Br)s2)CC=CCC1.[I-] (centres unmarked) [Compound 7C, 1-[(5-bromothiophen-2-yl)methyl]-1-methyl-1,2,3,6-tetrahydropyridin-1-ium iodide], the “E′MAX” value [1, 8] was 1.19 ± 0.04 fold over basal, the EC50 ([1]; M5 (↑IPX), preferential response, Table 7, read-out: pEC50 (converted)) was 3160 nM and the RAi [1, 9] was 0.0013 ± 0.0005. The RAi [2] was 0.0042 ± 0.0005, the “Δlog(τ/KA)” value [2] was 2.38 ± 0.66 and the “E′MAX” value ([2]; M3 (↑IPX), preferential response, Table 7) was 1.6 ± 0.1 fold over basal. For the same compound, the τ ([2]; M3 (↑IPX), preferential response, Table 7, operational efficacy) was 0.02 ± 0.01, the Kd ([2]; M3 (↑IPX), preferential response, Table 7, operational model, read-out: pKA (converted)) was 2510 nM and the EC50 ([2]; M3 (↑IPX), preferential response, Table 7, read-out: pEC50 (converted)) was 2510 nM. It also gave an Emax [3] of 11 ± 1%, a τ [3, 10] of 0.14 ± 0.01 and a Kd ([3]; M4 (↓cAMP), preferential response, Table 7, operational model, read-out: pKA (converted)) of 2510 nM. For the same compound, the EC50 ([3]; M4 (↓cAMP), preferential response, Table 7, read-out: pEC50 (converted)) was 2400 nM, the RAi [3, 11] was 0.0030 ± 0.0003 and the “Δlog(τ/KA)” value [3, 12] was 2.26 ± 0.16. For the same compound, the Ki ([4]; competition with 1 nM [3H]NMS, read-out: Inhibition constants (Ki) as negative logarithms, M1 (converted)) was 1510 nM, the Ki ([5]; competition with 1 nM [3H]NMS, read-out: Inhibition constants (Ki) as negative logarithms, M2 (converted)) was 933 nM and the Ki ([6]; competition with 1 nM [3H]NMS, read-out: Inhibition constants (Ki) as negative logarithms, M4 (converted)) was 1450 nM. It also gave a Ki ([7]; competition with 1 nM [3H]NMS, read-out: Inhibition constants (Ki) as negative logarithms, M5 (converted)) of 977 nM.
O=C1CCCN1CC#CCN1CCCC1 [oxotremorine, reference compound] was tested, and the Kd [1] was 251 nM, the “E′MAX” value [1, 8] was 16 ± 1 fold over basal and the τ ([1]; M5 (↑IPX), preferential response, Table 7, operational efficacy) was 2.60 ± 0.30. The RAi [1, 9] was 4.12 ± 0.26, the “Δlog(τ/KA)” value ([1]; M5 (↑IPX), preferential response, to carbachol, Tables 2, 3, 7) was −0.62 ± 0.07 and the “E′MAX” value ([1]; M5Gq (↑IPX), Table 8) was 16 ± 1 fold over basal. For the same compound, the pKA ([1]; M5Gq (↑IPX), Table 8) was 6.6 ± 0.1, the τ ([1]; M5Gq (↑IPX), Table 8) was 2.2 ± 0.3 and the RAi ([1]; M5Gq (↑IPX), Table 8, relative to carbachol) was 4.37 ± 0.29. The “Δlog(τ/KA)” value ([1]; M5Gq (↑IPX), Table 8, to carbachol) was −0.64, the EC50 ([1]; pEC50, M5 (↑IPX), preferential response, Table 7) was 70.8 nM and the EC50 ([1]; pEC50, M5Gq (↑IPX), Table 8) was 74.1 nM. The EC50 [2] was 95.5 nM, the “E′MAX” value [2] was 22 ± 2 fold over basal and the Kd [2] was 398 nM. For the same compound, the RAi [2] was 4.14 ± 0.38 and 4.14 ± 0.41, the pEC50 [2] was 7.02 ± 0.04 and the pKA [2] was 6.4 ± 0.1. The “Δlog(τ/KA)” value [2] was −0.62 ± 0.06, the τ [2] was 2.97 ± 0.30 and 3.0 ± 0.3 and the Kd [3] was 31.6 nM. It also gave an Emax [3] of 48 ± 2%, a pEC50 ([3]; M4 (↓cAMP), preferential response, Table 7) of 7.85 ± 0.04 and a τ [3, 10] of 1.17 ± 0.08. The RAi [3, 11] was 3.81 ± 0.16, the “Δlog(τ/KA)” value [3, 12] was −0.62 ± 0.08 and the “E′MAX” value ([3]; M4Gi (↓cAMP), Table 8) was 48 ± 2 % inhibition. For the same compound, the pEC50 ([3]; M4Gi (↓cAMP), Table 8) was 7.85 ± 0.04, the pKA ([3]; M4Gi (↓cAMP), Table 8) was 7.5 ± 0.1 and the τ ([3]; M4Gi (↓cAMP), Table 8) was 1.2 ± 0.1. The RAi ([3]; M4Gi (↓cAMP), Table 8, relative to carbachol) was 3.81 ± 0.16, the “Δlog(τ/KA)” value ([3]; M4Gi (↓cAMP), Table 8, to carbachol) was −0.62 ± 0.08 and the Ki ([4]; Inhibition constants (KI) as negative logarithms, M1, high site) was 7.94 nM. The Ki ([4]; Inhibition constants (KI) as negative logarithms, M1, low site) was 372 nM, the Ki ([5]; Inhibition constants (KI) as negative logarithms, M2, high site, reference agonists, high affinity site) was 12.6 nM and the Ki ([5]; Inhibition constants (KI) as negative logarithms, M2, low site, reference agonists, low affinity site) was 575 nM. It also gave a Ki ([6]; Inhibition constants (KI) as negative logarithms, M4, high site, reference agonists, high affinity site) of 12.6 nM, a Ki ([6]; Inhibition constants (KI) as negative logarithms, M4, low site, reference agonists, low affinity site) of 617 nM and a Ki ([7]; Inhibition constants (KI) as negative logarithms, M5, high site, reference agonists, high affinity site) of 12.6 nM. It also gave a Ki ([7]; Inhibition constants (KI) as negative logarithms, M5, low site, reference agonists, low affinity site) of 537 nM.
